# Measurements: patent US20230203043A1, “NOVEL IMIDAZOPYRAZINE DERIVATIVES” (Hoffmann-La Roche Inc., priority 2020, published 2023)
# Structures can show the parent of a compound that is named as a salt.
# Tested on: Acinetobacter baumannii ATCC17961
# Assay: Antimicrobial susceptibility testing: 90% growth inhibitory concentration (IC90) determination in Iso-Sensitest broth, OD600 growth
# Assay type: cell-based
# Conditions: Acinetobacter baumannii, ATCC17961, 16 h, read-out: A. baumannii ATCC 17961 IC90 (uM), strain ATCC 17961, OD600 growth over 16 h
# Outline: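 Growth inhibition is calculated during the logarithmic phase from OD600 readings taken every 20 minutes across 16 h at 35±2° C. Bacteria at ~5×10^(5) CFU/ml face twofold dilution series (e.g. 50 to 0.097 μM final).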
row,SMILES,IC90 [µM]
1,"CCc1cc(Nc2nccn3c(-c4cn(C(C)C#N)nc4C(F)(F)F)cnc23)ccc1C(=O)NCCOCCCN (stereo not drawn) [Example 639, N-(2-(3-aminopropoxy)ethyl)-4-((3-(1-(1-cyanoethyl)-3-(trifluoromethyl)-1H-pyrazol-4-yl)imidazo[1,2-a]pyrazin-8-yl)amino)-2-ethylbenzamide formate]",0.228
2,"CCc1cc(Nc2nccn3c(-c4cn(CC(F)F)nc4C(F)(F)F)cnc23)ccc1C(=O)NCC1CC1N (stereo not drawn) [Example 641, N-((2-aminocyclopropyl)methyl)-4-((3-(1-(2,2-difluoroethyl)-3-(trifluoromethyl)-1H-pyrazol-4-yl)imidazo[1,2-a]pyrazin-8-yl)amino)-2-ethylbenzamide formate]",0.231
3,"CCc1cc(Nc2nccn3c(-c4cn(CC(F)F)nc4C(F)(F)F)cnc23)ccc1C(=O)NCC(=O)NC1CC(N)C1 (stereo not drawn) [Example 642, N-[2-[(3-aminocyclobutyl)amino]-2-oxo-ethyl]-4-[[3-[1-(2,2-difluoroethyl)-3-(trifluoromethyl)pyrazol-4-yl]imidazo[1,2-a]pyrazin-8-yl]amino]-2-ethyl-benzamide formate]",0.232
4,"CCc1cc(Nc2nccn3c(-c4cn(CC(F)F)nc4C(F)(F)F)cnc23)ccc1C(=O)NCCNC(=O)[C@@H](C)N [Example 643, (R)-N-(2-(2-aminopropanamido)ethyl)-4-((3-(1-(2,2-difluoroethyl)-3-(trifluoromethyl)-1H-pyrazol-4-yl)imidazo[1,2-a]pyrazin-8-yl)amino)-2-ethylbenzamide formate]",0.232
5,"CCc1cc(Nc2nccn3c(-c4cn(C(C)C#N)nc4C(F)(F)F)cnc23)ccc1C(=O)NCCOCCN1CCCC1 (stereo not drawn) [Example 645, 4-((3-(1-(1-cyanoethyl)-3-(trifluoromethyl)-1H-pyrazol-4-yl)imidazo[1,2-a]pyrazin-8-yl)amino)-2-ethyl-N-(2-(2-(pyrrolidin-1-yl)ethoxy)ethyl)benzamide formate]",0.242
6,"C[C@@H](NC(=O)c1ccc(Nc2nccn3c(-c4cn(CC#N)nc4C(F)(F)F)cnc23)cc1Cl)C(=O)N1CCNCC1 [Example 647, 2-chloro-4-[[3-[1-(cyanomethyl)-3-(trifluoromethyl)pyrazol-4-yl]imidazo[1,2-a]pyrazin-8-yl]amino]-N-[(1R)-1-methyl-2-oxo-2-piperazin-1-yl-ethyl]benzamide formate]",0.244
7,"CCc1cc(Nc2nccn3c(-c4c[nH]nc4C(F)(F)F)cnc23)ccc1C(=O)NCCCNC(=O)[C@H](C)N [Example 652, (S)-N-(3-(2-aminopropanamido)propyl)-2-ethyl-4-((3-(3-(trifluoromethyl)-1H-pyrazol-4-yl)imidazo [1,2-a]pyrazin-8-yl)amino)benzamide formate]",0.259

# Same assay, conditions: Acinetobacter baumannii, ATCC17961, 16 h, strain ATCC 17961, OD600 growth over 16 h, read-out: A. baumannii ATCC 17961 IC90
row,SMILES,IC90 [µM]
1,"CCc1cc(Nc2nccn3c(-c4cn(CC(F)F)nc4C(F)(F)F)cnc23)ccc1C(=O)NCC(=O)N[C@H]1CCNC1 [Example 638, 4-[[3-[1-(2,2-difluoroethyl)-3-(trifluoromethyl)pyrazol-4-yl]imidazo[1,2-a]pyrazin-8-yl]amino]-2-ethyl-N-[2-oxo-2-[[(3S)-pyrrolidin-3-yl]amino]ethyl] benzamide formate]",0.226
2,"CCc1cc(Nc2nccn3c(-c4cn(CCF)nc4C(F)(F)F)cnc23)ccc1C(=O)NCC1CC1N (stereo not drawn) [Example 640, N-((2-aminocyclopropyl)methyl)-2-ethyl-4-((3-(1-(2-fluoroethyl)-3-(trifluoromethyl)-1H-pyrazol-4-yl)imidazo[1,2-a]pyrazin-8-yl)amino) benzamide formate]",0.229
3,"CCc1cc(Nc2nccn3c(-c4cn(CC(O)C(F)(F)F)nc4C(F)(F)F)cnc23)ccc1C(=O)NCCOCCN (stereo not drawn) [Example 644, N-(2-(2-aminoethoxy)ethyl)-2-ethyl-4-((3-(1-(3,3,3-trifluoro-2-hydroxypropyl)-3-(trifluoromethyl)-1H-pyrazol-4-yl)imidazo [1,2-a]pyrazin-8-yl)amino) benzamide]",0.24
4,"C#CCn1cc(-c2cnc3c(Nc4cc(C)c(C(=O)N5CCN(C(=O)[C@H]6CC[C@H](O)N6)CC5)c(F)c4)nccn23)c(C(F)(F)F)n1 [Example 646, (4-(2-fluoro-6-methyl-4-((3-(1-(prop-2-yn-1-yl)-3-(trifluoromethyl)-1H-pyrazol-4-yl)imidazo[1,2-a]pyrazin-8-yl)amino)benzoyl)piperazin-1-yl)((2R,5S)-5-hydroxypyrrolidin-2-yl)methanone]",0.243
5,"CCc1cc(Nc2nccn3c(-c4cn(CC(F)F)nc4C(F)(F)F)cnc23)ccc1C(=O)NCC(=O)N[C@@H]1CCNC1 [Example 648, 4-[[3-[1-(2,2-difluoroethyl)-3-(trifluoromethyl)pyrazol-4-yl]imidazo[1,2-a]pyrazin-8-yl]amino]-2-ethyl-N-[2-oxo-2-[[(3R)-pyrrolidin-3-yl]amino]ethyl] benzamide formate]",0.246
6,"CCc1cc(Nc2nccn3c(-c4cn(CC(F)F)nc4C(F)(F)F)cnc23)ccc1C(=O)N[C@H](C)CNC(=O)[C@@H]1CCCN1 [Example 649, (S)-N-((R)-2-(4-((3-(1-(2,2-difluoroethyl)-3-(trifluoromethyl)-1H-pyrazol-4-yl)imidazo[1,2-a]pyrazin-8-yl)amino)-2-ethylbenzamido)propyl)pyrrolidine-2-carboxamide]",0.247
7,"Cc1cc(Nc2nccn3c(-c4cn(CC(F)F)nc4C(F)(F)F)cnc23)cc(F)c1C(=O)N1CCN(C(=O)CN)CC1 [Example 650, 2-amino-1-(4-(4-((3-(1-(2,2-difluoroethyl)-3-(trifluoromethyl)-1H-pyrazol-4-yl)imidazo[1,2-a]pyrazin-8-yl)amino)-2-fluoro-6-methylbenzoyl)piperazin-1-yl)ethan-1-one]",0.252
8,"NCC(=O)N1CC2(C1)CN(C(=O)c1ccc(Nc3nccn4c(-c5cn(CC(F)F)nc5C(F)(F)F)cnc34)cc1Cl)C2 [Example 651, 2-amino-1-(6-(2-chloro-4-((3-(1-(2,2-difluoroethyl)-3-(trifluoromethyl)-1H-pyrazol-4-yl)imidazo[1,2-a]pyrazin-8-yl)amino)benzoyl)-2,6-diazaspiro[3.3]heptan-2-yl)ethan-1-one]",0.254
9,"Cc1cc(Nc2nccn3c(-c4cn(CC(F)F)nc4C(F)(F)F)cnc23)cc(F)c1C(=O)N[C@H](C)CNC(=O)[C@H]1[C@@H]2CNC[C@@H]21 [Example 653, (1R,5S,6r)-N-((R)-2-(4-((3-(1-(2,2-difluoroethyl)-3-(trifluoromethyl)-1H-pyrazol-4-yl)imidazo [1,2-a]pyrazin-8-yl)amino)-2-fluoro-6-methylbenzamido)propyl)-3-azabicyclo[3.1.0]hexane-6-carboxamide]",0.259
10,"CCc1cc(Nc2nccn3c(-c4cn(CC#N)nc4C(F)(F)F)cnc23)ccc1C(=O)N[C@H](C)CNC(=O)[C@@H]1CCCN1 [Example 654, (S)-N-((R)-2-(4-((3-(1-(cyanomethyl)-3-(trifluoromethyl)-1H-pyrazol-4-yl)imidazo[1,2-a]pyrazin-8-yl)amino)-2-ethylbenzamido)propyl) pyrrolidine-2-carboxamide]",0.263
11,"CCc1cc(Nc2nccn3c(-c4cn(CCC(C)(C)Cl)nc4C(F)(F)F)cnc23)ccc1C(=O)NCCOCCN [Example 655, N-(2-(2-aminoethoxy)ethyl)-4-((3-(1-(3-chloro-3-methylbutyl)-3-(trifluoromethyl)-1H-pyrazol-4-yl)imidazo[1,2-a]pyrazin-8-yl)amino)-2-ethylbenzamide]",0.266
12,"N#CCn1cc(-c2cnc3c(Nc4ccc(C(=O)NCC(=O)N5CC[C@H](N)C5)c(Cl)c4)nccn23)c(C(F)(F)F)n1 [Example 656, N-[2-[(3S)-3-aminopyrrolidin-1-yl]-2-oxo-ethyl]-2-chloro-4-[[3-[1-(cyanomethyl)-3-(trifluoromethyl)pyrazol-4-yl]imidazo[1,2-a]pyrazin-8-yl]amino] benzamide formate]",0.266
13,"NCC(=O)N1CC2(C1)CN(C(=O)c1ccc(Nc3nccn4c(-c5c[nH]nc5C(F)(F)F)cnc34)cc1Cl)C2 [Example 658, 2-amino-1-(6-(2-chloro-4-((3-(3-(trifluoromethyl)-1H-pyrazol-4-yl)imidazo[1,2-a]pyrazin-8-yl)amino)benzoyl)-2,6-diazaspiro[3.3]heptan-2-yl)ethan-1-one]",0.269
14,"N#CCn1cc(-c2cnc3c(Nc4ccc(C(=O)N5CC6(CN(C(=O)CN)C6)C5)c(Cl)c4)nccn23)c(C(F)(F)F)n1 [Example 659, 2-(4-(8-((3-chloro-4-(6-glycyl-2,6-diazaspiro[3.3]heptane-2-carbonyl)phenyl)amino)imidazo[1,2-a]pyrazin-3-yl)-3-(trifluoromethyl)-1H-pyrazol-1-yl)acetonitrile]",0.27
15,"N#CCn1cc(-c2cnc3c(Nc4ccc(C(=O)NCC(=O)NC5CC(N)C5)c(Cl)c4)nccn23)c(C(F)(F)F)n1 (stereo not drawn) [Example 660, N-[2-[(3-aminocyclobutyl)amino]-2-oxo-ethyl]-2-chloro-4-[[3-[1-(cyanomethyl)-3-(trifluoromethyl)pyrazol-4-yl]imidazo[1,2-a]pyrazin-8-yl]amino] benzamide formate]",0.277
16,"CCc1cc(Nc2nccn3c(-c4cn(C5CCC5)nc4C(F)(F)F)cnc23)ccc1C(=O)NCCOCCN1CCOCC1 [Example 661, 4-((3-(1-cyclobutyl-3-(trifluoromethyl)-1H-pyrazol-4-yl)imidazo[1,2-a]pyrazin-8-yl)amino)-2-ethyl-N-(2-(2-morpholinoethoxy)ethyl) benzamide formate]",0.279
17,"C#CCn1cc(-c2cnc3c(Nc4cc(C)c(C(=O)N[C@H](C)CN)c(F)c4)nccn23)c(C(F)(F)F)n1 [Example 662, (R)-N-(1-aminopropan-2-yl)-2-fluoro-6-methyl-4-((3-(1-(prop-2-yn-1-yl)-3-(trifluoromethyl)-1H-pyrazol-4-yl)imidazo [1,2-a]pyrazin-8-yl)amino)benzamide]",0.284
